The values below come from article PMC10045663, “Synthesis, In Vitro Biological Evaluation of Antiproliferative and Neuroprotective Effects and In Silico Studies of Novel 16E-Arylidene-5α,6α-epoxyepiandrosterone Derivatives” (Biomedicines, 2023).

As a reminder, the IC50 is the concentration that inhibits the measured activity by half.

Where only a bound is given, the exact number is not on record here.

Assay [1] has as its system NHDF cells (normal human dermal fibroblasts). The assay is described as follows: MTT cell proliferation assay, NHDF cells. Format: cell-based. The conditions noted are these: 72 h, non-tumoral cells, read-out: Estimated IC50, NHDF. Here is the method:
(§1) LNCaP, PC-3, MCF-7, PNT1A, N27, and NHDF cells were obtained from the American Type Culture Collection (ATCC; Manassas, VA, USA) and were cultured in 75 cm^2 culture flasks at 37 °C in a humidified air incubator with 5% CO2. LNCaP, PC-3, PNT1A, and N27 cells, respectively, were cultured in RPMI 1640 medium (Sigma-Aldrich, Inc. St. Louis, MO, USA) with 10% fetal bovine serum (FBS; Sigma-Aldrich, Inc. St. Louis, MO, USA) and 1% of the antibiotic mixture of 10,000 U/mL penicillin G and […] streptomycin (Sp, Sigma-Aldrich, Inc. St. Louis, MO, USA). MCF-7 cells were cultured in DMEM medium (Sigma-Aldrich, Inc. St. Louis, MO, USA) supplemented with 10% fetal bovine serum (FBS; Sigma-Aldrich, Inc. St. Louis, MO, USA) and 1% antibiotic/antimycotic (10,000 U/mL penicillin G, […] streptomycin, and 25 µg/mL amphotericin B: Ab, Sigma-Aldrich, Inc. St. Louis, MO, USA). Finally, NHDF cells were cultured in RPMI 1640 medium supplemented with 10% FBS, 2 mM L-glutamine, 10 mM HEPES, 1 mM sodium pyruvate, and 1% of the antibiotic/antimycotic Ab, and these cells were used in passages 10th to 14th. For all cell types, the medium was renewed every 2 days until cells nearly reached the confluence state. When cells reach approximately 90–95% confluence, they are gently detached by trypsinization (trypsin-EDTA solution: 0.125 g/L of trypsin and 0.02 g/L of EDTA). Before each experiment, viable cells were counted in a Neubauer chamber by a trypan-blue exclusion assay and adequately diluted in the appropriate complete cell culture medium.
(§2) All tested compounds were dissolved in dimethyl sulfoxide (DMSO; Sigma-Aldrich, Inc. St. Louis, MO, USA) at a concentration of 10 mM and stored at 4 °C. From the mother-solutions, the diluted solutions of the compounds, in different concentrations, were prepared in the respective complete culture medium before each experiment.
(§3) After reaching a confluence state, cells were trypsinized and counted by the trypan-blue exclusion assay and then seeded with an initial density of 2 × 10^4 cells/mL in 96-well culture plates (Nunc, Apogent, Denmark) and left to adhere and grow for 48 h. Subsequently, the medium was removed, and the cells were treated with compound solutions (10 and 50 µM for preliminary studies and 0.01, 0.1, 1, 10, 50, and 100 µM for concentration-response studies) in complete culture medium for 72 h. 5-Fluorouracil (5-FU) was used as a positive control, and untreated cells were used as the negative control. Compounds leading to cell proliferation relative to control clearly below 50%, at 10 µM, or clearly below 25%, at 50 µM, in the screening studies were selected to concentration-response studies in tumoral cell lines. Each experiment was performed in quadruplicate and independently at least two times. The in vitro antiproliferative effects were evaluated by the MTT assay (Sigma-Aldrich, Inc. St. Louis, MO, USA). After the incubation period, the medium was removed, and 100 µL of phosphate buffer saline (PBS, NaCl 137 mM; KCl 2.7 mM; Na2HPO4 10 mM; and KH2PO4 1.8 mM in deionized water with a pH adjusted to 7.4) were used to wash the cells. Then, 100 µL of the MTT solution (5 mg/mL) was prepared in the appropriate serum-free medium and added to each well, followed by incubation for 4 h at 37 °C. Hereafter, the MTT containing medium was removed, and the formazan crystals were dissolved in DMSO. Then, the absorbance was measured at 570 nm using a xMarkTM microplate spectrophotometer from BIO-RAD Laboratories. Cell viability values were expressed as percentages relative to the negative control.

Assay [2] relates to PNT1A (normal prostate cells). The assay is described as follows: MTT cell proliferation assay, PNT1A cells. Format: cell-based. Particulars: 72 h, non-tumoral cells, read-out: Estimated IC50, PNT1A. The procedure:
as §1, §2, §3

The subject of assay [3] is N27 (rat dopaminergic neuronal cells). The assay is described as follows: MTT cell proliferation assay, N27 cells. The assay is classed as cell-based. Particulars: 72 h, non-tumoral cells, read-out: Estimated IC50, N27. Here is the method: as §1, §2, §3
Assay [4] has as its system PC-3 cells (androgen-independent prostatic cancer). Description: MTT cell proliferation assay, PC-3 cells. The assay is classed as cell-based. The conditions noted are these: 72 h; for IC50: MTT, tumoral cells, read-out: Estimated IC50, PC-3; for decrease on cell proliferation relative to the control: PC-3, 50 µM. The procedure:
as §1, §2, §3

Assay [5] has as its system LNCaP cells (androgen-dependent prostatic cancer). The assay is described as follows: MTT cell proliferation assay, LNCaP cells. The assay is classed as cell-based. Particulars: 72 h; for effect on LNCaP cell proliferation: 10 µM; for decrease in LNCaP cell proliferation: 50 µM; for IC50: MTT, tumoral cells, read-out: Estimated IC50, LNCaP. The procedure:
as §1, §2, §3

In assay [6] the test system is MCF-7 cells (estrogen-responsive breast cancer cells). The assay is described as follows: MTT cell proliferation assay, MCF-7 cells. Format: cell-based. The conditions noted are these: 72 h; for IC50: MTT, tumoral cells, read-out: Estimated IC50, MCF-7. Here is the method:
as §1, §2, §3

Assay [7] has as its system all cell lines (NHDF, PNT1A, N27, LNCaP, PC-3, MCF-7). The assay is described as follows: MTT preliminary screening, all cell lines taken together. Format: cell-based. The conditions noted are these: 50 µM, 72 h. The procedure:
as §1, §2, §3

A further assay relates to N27 cells. Description: N27 cell viability after 24 h (MTT), substance alone. Format: cell-based, rat. The conditions noted are these: 50 μM. Here is the method:
The immortalized rat mesencephalic dopaminergic cell line (N27 cells; a kind gift from Dr. Yoon-Seong Kim, Burnett School of Biomedical Sciences, University of Central Florida) was grown in Roswell Park Memorial Institute (RPMI) 1640 medium (Sigma-Aldrich) containing 2 g/L sodium bicarbonate, 10% fetal bovine serum (FBS; Millipore), and 1 mL/L of penicillin/streptomycin (GIBCO) in a humidified atmosphere of 5% CO2 at 37 °C. Cells were plated at a density of 0.31 × 10^5 cells per cm^2 in 96-well culture plates. […] To assess cell viability, MTT reduction was performed as previously described (Section 2.3) with some modifications. Briefly, after 24 h of cell treatments, 0.5 mg/mL of MTT was added to cells for 4 h at 37 °C. Then, the resultant precipitate was dissolved in 10% SDS and quantified at a wavelength of 570 nm.

As to `CC12CCC3C(CC4OC45CC(O)CCC35C)C1CC(=Cc1cccs1)C2=O` (stereo not drawn) [Compound 18, (E)-16-(Thiophen-2-ylmethylene)-3-hydroxy-5α ,6α -epoxy-10,13-dimethyl-1,3,4,7,8,9,10,11,12,13,15,16-dodecahydro-2H-cyclopenta[α ]phenanthren-17(14H)-one], the IC50 was 29.7 µM in assay [1], 29.6 µM in assay [2], 12.6 µM in assay [3] and 37.6 µM in assay [4].

For “(E)-16-(2,4-Dichlorobenzylidene)-3-hydroxy-5α ,6α -epoxy-10,13-dimethyl-1,3,4,7,8,9,10,11,12,13,15,16-dodecahydro-2H-cyclopenta[α ]phenanthren-17(14H)-one [Compound 22]”, the IC50 was 15 µM in assay [1]; 14.4 µM in assay [2]; 16.8 µM in assay [3]; 15 µM in assay [5]; 44.5 µM in assay [4]; 14.5 µM in assay [6]. Further, the “effect on LNCaP cell proliferation” value in assay [5] is “no relevant effects”. Also, the “decrease in LNCaP cell proliferation” value in assay [5] was “higher than 75%”. Also, the “decrease on cell proliferation relative to the control” value in assay [4] is reported as “higher than 75%”. In addition, the “cell proliferation relative to the control” value in assay [6] (MCF-7, 50 µM) is about 0%. This molecule also came in with a relative cell proliferation in assay [7] of at most 50%.

`C[C@]12CC[C@H]3[C@@H](C[C@@H]4O[C@@]45CC(O)CC[C@]35C)[C@@H]1C/C(=C\c1cccc(F)c1F)C2=O` (stereo partly drawn) [Compound 24, (E)-16-(2,3-Difluorobenzylidene)-3-hydroxy-5α ,6α -epoxy-10,13-dimethyl-1,3,4,7,8,9,10,11,12,13,15,16-dodecahydro-2H-cyclopenta[α ]phenanthren-17(14H)-one]: the IC50 in assay [1] is 33.4 µM; in assay [2], 56.5 µM; in assay [3], 18.9 µM.

Regarding `NCCc1cc(O)c(O)cc1O` [Compound 6-OHDA, 6-hydroxydopamine, reference compound], the “reduction in cell viability compared to the control” value in the assay with N27 cells was about 50%.

With “(E)-16-[(5-Chlorothiophen-2-yl)methylene]-3-hydroxy-5α ,6α -epoxy-10,13-dimethyl-1,3,4,7,8,9,10,11,12,13,15,16-dodecahydro-2H-cyclopenta[α ]phenanthren-17(14H)-one [Compound 26]”, the half-inhibitory concentration (IC50) is 16.6 µM in assay [1]; 15.6 µM in assay [2]; 14.3 µM in assay [3]; 11.3 µM in assay [5]; 43.8 µM in assay [4]; 21.8 µM in assay [6]. In addition, the “effect on LNCaP cell proliferation” value in assay [5] is listed as “no relevant effects”. Further, in assay [5], the “decrease in LNCaP cell proliferation” value was “higher than 75%”. The “decrease on cell proliferation relative to the control” value in assay [4] is given as “higher than 75%”. For the same molecule, in assay [7], the relative cell proliferation was at most 50%.

Consider `COc1ccc(C=C2CC3C4CC5OC56CC(O)CCC6(C)C4CCC3(C)C2=O)cc1` (stereo not drawn) [Compound 16, (E)-16-(4-Metoxybenzylidene)-3-hydroxy-5α ,6α -epoxy-10,13-dimethyl-1,3,4,7,8,9,10,11,12,13,15,16-dodecahydro-2H-cyclopenta[α ]phenanthren-17(14H)-one], for which the IC50 in assay [1] is 39.3 µM; in assay [2], 54.5 µM; in assay [3] it was 33.2 µM; in assay [4] it was 20.1 µM.

For the molecule `Cc1ccc(/C=C2\C[C@H]3[C@@H]4C[C@@H]5O[C@@]56CC(O)CC[C@]6(C)[C@H]4CC[C@]3(C)C2=O)o1` (stereo partly drawn) [Compound 21, (E)-16-[(5-Methylfuran-2-yl)methylene]-3-hydroxy-5α ,6α -epoxy-10,13-dimethyl-1,3,4,7,8,9,10,11,12,13,15,16-dodecahydro-2H-cyclopenta[α ]phenanthren-17(14H)-one], the IC50 was 23.4 µM in assay [1], 46.3 µM in assay [2] and 13.2 µM in assay [3].

Turning to `Cc1ccc(C=C2CC3C4CC5OC56CC(O)CCC6(C)C4CCC3(C)C2=O)cc1` (stereo not drawn) [Compound 23, (E)-16-(4-Methylbenzylidene)-3-hydroxy-5α ,6α -epoxy-10,13-dimethyl-1,3,4,7,8,9,10,11,12,13,15,16-dodecahydro-2H-cyclopenta[α ]phenanthren-17(14H)-one], the IC50 in assay [1] was 28.3 µM; in assay [2], 13.3 µM; in assay [3], 12.7 µM; in assay [5], 19.3 µM; in assay [4], 14 µM; in assay [6] it was 18.7 µM. For the same molecule, the “effect on LNCaP cell proliferation” value in assay [5] is “no relevant effects”. Besides, the “decrease in LNCaP cell proliferation” value in assay [5] is listed as “higher than 75%”. This molecule also yielded a relative cell proliferation in assay [7] of at most 50%.

For `CC12CCC3C(CC4OC45CC(O)CCC35C)C1CC(=Cc1ccc(Br)cc1)C2=O` (stereo not drawn) [Compound 25, (E)-16-(4-Bromobenzylidene)-3-hydroxy-5α ,6α -epoxy-10,13-dimethyl-1,3,4,7,8,9,10,11,12,13,15,16-dodecahydro-2H-cyclopenta[α ]phenanthren-17(14H)-one], the half-inhibitory concentration (IC50) in assay [1] was 16 µM; in assay [2] it was 15.3 µM; in assay [3], 15.4 µM; in assay [5], 36.9 µM; in assay [4] it was 14.5 µM; in assay [6], 14.5 µM. Moreover, in assay [5], the “effect on LNCaP cell proliferation” value is recorded as “no relevant effects”. Further, in assay [5], the “decrease in LNCaP cell proliferation” value is “higher than 75%”. Moreover, in assay [4], the “decrease on cell proliferation relative to the control” value is listed as “higher than 75%”. This molecule also yielded a relative cell proliferation in assay [7] of at most 50%.

“(E)-16-Benzylidene-3-hydroxy-5α,6α-epoxy-10,13-dimethyl-1,3,4,7,8,9,10,11,12,13,15,16-dodecahydro-2H-cyclopenta[α]phenanthrene-17(14H)-one [Compound 15]”: the IC50 in assay [1] was 39.5 µM; in assay [2], 33.1 µM; in assay [3], 9.21 µM; in assay [5], 27.4 µM; in assay [4], 17 µM; in assay [6], 42.7 µM. Also, in assay [4], the “decrease on cell proliferation relative to the control” value is reported as “higher than 75%”. Moreover, the relative cell proliferation in assay [7] was at most 50%.
